# Data as given in patent publication US20250161290A1, “CO-CRYSTALS” (CereSpir Incorporated, priority 2021, published 2025).
# “Also recorded” adds a separate entry of the source.
# Tests used:
# [1] = in vivo, cited from earlier work
# [2] = XRPD of pre-exposed and post-exposed DVS samples (solid form stability); assay type: physicochemical; conditions: two DVS sorption/desorption cycles, 5-95% RH, 25° C.
# Experimental: X-ray powder diffraction analyses are obtained using a BRUKER D8 ADVANCE equipped with a Cu radiation source operated at 40 kV and 40 mA (λ=1.54 Å after Ni filtering) configured in a Bragg-Brentano geometry, equipped with a 90-position AUTO-CHANGER and a silicon strip detector (SSD160-2). A coupled theta-two theta continuous PSD (Position Sensitive Device) fast scan from 4 to 40 degrees are collected over approximately 32 minutes (0.5 sec/0.01° step). A sample is placed onto a polished zero-background silicon wafer by gently distributing onto the flat surface and is analyzed as a flat plate specimen.
# (§1) Samples are analyzed using a TA Instruments Q5000SA gravimetric water sorption analyzer. The relative humidity (RH) is adjusted in 10% RH increments between 5-95% (±1% RH) at 25° C. (±0.5%° C.). The mass of a sample is continuously monitored and recorded with respect to RH and time with criteria for mass equilibrium set as a percent mass change <0.0100 for 5 minutes with a time limit of 720 minutes per step. The humidity is controlled by mixing dry and wet nitrogen streams with a total flow rate of 200 mL/min. The instrument control and data analysis are operated under Advantage for Q Series and Universal Analysis software, respectively.
# [3] = Coformer and CSP-1103 aqueous solubility assessment (qualitative); assay type: physicochemical; conditions: water, thermodynamic from solid, 0.05 M aqueous concentration, gentle heating at 45° C. for 1 minute
# Experimental: In a 1-dram vial, enough solvent was added to achieve a 0.05 M aqueous concentration along with some gentle heating at 45° C. for 1 minute to determine if the material would completely dissolve. After 24 hours, observations were made to determine if the material had remained in solution.
# [4] = Dynamic Vapor Sorption (DVS) water sorption/desorption; assay type: physicochemical; conditions: for Mass Change: 25° C.
# Experimental: as §1
# [5] = Consolidated qualitative solubility results (Tables 6 and 8); conditions: for consolidated solubility result: Table 6; for qualitative solvent solubility overlaid with cocrystallization screens' results: Table 8, numbers are molar concentrations pending investigation
# [6] = Solubility assessment of CSP-1103 in organic solvents (qualitative); assay type: physicochemical; conditions: organic solvent or mixture, thermodynamic from solid, qualitative solubility at 0.2 M, gentle heating 45° C. 1 minute if required
# Experimental: The solubility assessment of CSP-1103 was then performed. Approximately 0.05 mmol of CSP-1103 was weighed out into a 1-dram vial, enough solvent was added to achieve a 0.2 M concentration, and if required, gentle heating was applied at 45° C. for 1 minute. […] After 12 hours, observations were made to determine if the API had remained in solution.
# [7] = Thermogravimetric analysis (TGA), degradation onset; assay type: physicochemical; conditions: 10° C. per minute, nitrogen purge
# Experimental: TGA data are collected using a TA Instruments Discovery TGA equipped with an autosampler. Typically, 2-5 mg of sample is placed in a pre-tared, Tzero aluminum pan either as a hermetically sealed pan which would be automatically punched open before sample loading for analysis, or as an open pan. A 10° C. per minute ramp rate from ambient temperature to 375° C. using a 25 mL/min nitrogen purge is used. The instrument control and data analysis are operated under TRIOS software.
# [8] = physchem
# [9] = Solubility assessment of CSP-1103 in organic solvents (qualitative); assay type: physicochemical; conditions: organic solvent or mixture, thermodynamic from solid
# [10] = test system: rats after TBI; conditions: cited from earlier work
# [11] = test system: patients with mild cognitive impairment (MCI); conditions: listed as itanapraced, cited from earlier work
# [12] = Phase 2, MCI patients, CSF / brain
smiles,measurement,setting,value
"O=C(O)C1(c2ccc(-c3ccc(Cl)c(Cl)c3)c(F)c2)CC1 [CSP-1103, 1-(3′,4′-dichloro-2-fluoro[1,1′-biphenyl]-4-yl)-cyclopropanecarboxylic acid]",oral bioavailability,[1]; po,good oral bioavailability
same,penetration into the brain,[1],substantial penetration into the brain
same,plasma half-life,[1],long plasma half-life
same,solid form change after DVS exposure (XRPD pre- vs post-exposed),[2],no solid form change
same,solid form change after DVS exposure (XRPD pre- vs post-exposed),[2]; listed as CSP,no solid state form changes
same,solubility,[3],< 50 mM
same,Mass Change,"[4]; Cycle 1 of 2, Adsorption, RH 5 to 95%",1.10%
same,Mass Change,"[4]; Cycle 1 of 2, Desorption, RH 95 to 5%",−1.11%
same,Mass Change,"[4]; Cycle 2 of 2, Adsorption, RH 5 to 95%",1.13%
same,Mass Change,"[4]; Cycle 2 of 2, Desorption, RH 95 to 5%",−1.13%
same,hygroscopicity classification,"[4]; at 95% RH, Ph. Eur. 9.0 (slightly: <2% and ≥0.2%; non: <0.2%)",slightly hygroscopic
same,average water sorbed or desorbed,[4]; between 5-95% RH,1.1±0.0%
same,consolidated solubility result,[5]; MTBE,✓
same,qualitative solvent solubility overlaid with cocrystallization screens' results,[5]; acetone (BP 56° C.),50 mM
same,consolidated solubility result,[5]; acetone,✓
same,qualitative solvent solubility overlaid with cocrystallization screens' results,[5]; ethanol (BP 79° C.),50 mM
same,consolidated solubility result,[5]; ethanol,✓
same,consolidated solubility result,[5]; ethyl acetate,✓
same,qualitative solvent solubility overlaid with cocrystallization screens' results,[5]; methanol (BP 65° C.),50 mM
same,consolidated solubility result,[5]; methanol,✓
same,solubility,[6]; MTBE,< 200 mM
same,solubility,[6]; acetone,< 200 mM
same,solubility,[6]; acetonitrile,< 200 mM
same,solubility,[6]; ethanol,< 200 mM
same,degradation start by TGA,[7],> 200 °C
same,solubility,"[8]; MTBE, organic solvent or mixture",100 mM
same,solubility,"[8]; acetonitrile, organic solvent or mixture",< 50 mM
same,solubility,"[8]; ethyl acetate, organic solvent or mixture",100 mM
same,solubility,[8]; water,< 50 mM
same,solubility,"[9]; MTBE, qualitative solubility at 0.1 M, gentle heating if required",> 100 mM
same,solubility,"[9]; acetone, qualitative solubility at 0.05 M, gentle heating if required",> 50 mM
same,solubility,"[9]; acetone, qualitative solubility at 0.1 M, gentle heating if required",< 100 mM
same,solubility,"[9]; acetonitrile, qualitative solubility at 0.05 M, gentle heating if required",< 50 mM
same,solubility,"[9]; acetonitrile, qualitative solubility at 0.1 M, gentle heating if required",< 100 mM
same,solubility,"[9]; ethanol, qualitative solubility at 0.05 M, gentle heating if required",> 50 mM
same,solubility,"[9]; ethanol, qualitative solubility at 0.1 M, gentle heating if required",< 100 mM
same,solubility,"[9]; ethyl acetate, qualitative solubility at 0.1 M, gentle heating if required",> 100 mM
same,solubility,"[9]; ethyl acetate, qualitative solubility at 0.2 M, gentle heating 45° C. 1 minute if required",< 200 mM
same,solubility,"[9]; methanol, qualitative solubility at 0.05 M, gentle heating if required",> 50 mM
same,solubility,"[9]; methanol, qualitative solubility at 0.1 M, gentle heating if required",< 100 mM
same,solubility,"[9]; methanol, qualitative solubility at 0.2 M, gentle heating 45° C. 1 minute if required",< 200 mM
same,accumulation of hypertrophic microglia in the injured brain,[10],prevented the accumulation of hypertrophic microglia
same,acute lung injury,[10],attenuated
same,neurological injury,[10],attenuated
same,safety and tolerability,"[11]; Phase 2, MCI patients treated up to two years",good safety and tolerability; also recorded: well tolerated
same,TNF-α (neuroinflammatory mediator),[11]; [12],beneficial dose-related CSF differences; also recorded: dose-related statistically significant reductions
same,soluble CD40 ligand (neuroinflammatory mediator),[11]; [12],beneficial dose-related CSF differences; also recorded: dose-related statistically significant reductions
same,total tau (marker of neurodegeneration),[11]; [12],beneficial dose-related CSF differences; also recorded: dose-related statistically significant reductions
same,cognitive function,[11]; throughout the duration of the trial,stable cognition; also recorded: stable cognitive function
